Patent US20240158446A1, “CYCLIC COMPOUND HAVING SELECTIVE INHIBITORY ACTION ON KRAS OVER HRAS AND NRAS” (CHUGAI SEIYAKU KABUSHIKI KAISHA, priority 2021, published 2024)
Like-named read-outs stand apart in the source and are kept apart here.

Legend:
[1] = target: GDP-bound KRAS wild-type protein (Homo sapiens, UniProt P01116); assay: Binding to KRAS by surface plasmon resonance (SPR), Single Cycle Kinetics; settings: GDP-bound KRAS wild-type protein, read-out: KRAS KD
[2] = target: GDP-bound NRAS wild-type protein (Homo sapiens, UniProt P01111); assay: Binding to NRAS by surface plasmon resonance (SPR), Single Cycle Kinetics; settings: for NRAS/KRAS (ratio of KD value with respect to GDP-bound NRAS wild-type protein to KD value with respect to KRAS): SPR KD ratio NRAS/KRAS, class symbols
GDP-bound NRAS wild-type protein, sequence (P01111 whole entry): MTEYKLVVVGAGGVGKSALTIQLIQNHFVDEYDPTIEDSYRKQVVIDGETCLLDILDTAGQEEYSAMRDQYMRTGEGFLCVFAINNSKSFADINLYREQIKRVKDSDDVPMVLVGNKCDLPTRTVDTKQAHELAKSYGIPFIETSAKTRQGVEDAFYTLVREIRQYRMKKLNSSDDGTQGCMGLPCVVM

[3] = target: GDP-bound HRAS wild-type protein (Homo sapiens, UniProt P01112); assay: Binding to HRAS by surface plasmon resonance (SPR), Single Cycle Kinetics; settings: for HRAS/KRAS (ratio of KD value with respect to GDP-bound HRAS wild-type protein to KD value with respect to KRAS): SPR KD ratio HRAS/KRAS, class symbols
GDP-bound HRAS wild-type protein, sequence (P01112 whole entry): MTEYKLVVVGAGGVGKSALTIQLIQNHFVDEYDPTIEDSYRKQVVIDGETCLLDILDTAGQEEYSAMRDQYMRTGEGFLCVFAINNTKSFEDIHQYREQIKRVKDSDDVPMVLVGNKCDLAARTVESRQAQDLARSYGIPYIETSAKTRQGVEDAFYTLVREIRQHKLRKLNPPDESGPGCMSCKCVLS

[4] = tested on: human lung cancer strain NCI-H441;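 further: cell proliferation inhibition after four days measured by CellTiter-Glo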
[5] = SPR, Single Cycle Kinetics, 1:1 binding model
[6] = SPR, GDP-bound NRAS wild-type protein vs GDP-bound KRAS wild-type protein, KD ratio class
[7] = SPR, GDP-bound HRAS wild-type protein vs GDP-bound KRAS wild-type protein, KD ratio class
[8] = SPR, GDP-bound NRAS wild-type protein vs GDP-bound KRAS wild-type protein
[9] = SPR, GDP-bound HRAS wild-type protein vs GDP-bound KRAS wild-type protein
[10] = SPR Single Cycle Kinetics, 1:1 binding model

GDP-bound KRAS wild-type protein, sequence (P01116 whole entry): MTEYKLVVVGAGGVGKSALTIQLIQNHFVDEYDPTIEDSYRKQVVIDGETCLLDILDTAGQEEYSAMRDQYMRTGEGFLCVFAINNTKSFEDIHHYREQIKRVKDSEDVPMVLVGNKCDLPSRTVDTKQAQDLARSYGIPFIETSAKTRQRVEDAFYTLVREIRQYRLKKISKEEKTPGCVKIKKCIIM

Row | SMILES | Kd [1, 5] [nM] | IC50 [4] [nM] | Kd ([1]; SPR, Single Cycle Kinetics) [nM] | NRAS/KRAS (ratio of KD value for NRAS to KD value for KRAS) [2, 6] | HRAS/KRAS (ratio of KD value for HRAS to KD value for KRAS) [3, 7] | NRAS/KRAS (ratio of KD value for NRAS to KD value for KRAS) [2, 8] | HRAS/KRAS (ratio of KD value for HRAS to KD value for KRAS) [3, 9] | other results
1 | CCO[C@@H]1C[C@H]2C(=O)NC3(CCC3)C(=O)N(C)[C@@H](C3CCCC3)C(=O)N(C)[C@H](C(=O)N3CCCC3)CC(=O)N(C)[C@@H](CC(C)C)C(=O)N[C@@H]([C@@H](C)CC)C(=O)N(C)CC(=O)N(C)[C@H]3C/C=C\CCN(C3=O)[C@@H](Cc3ccc(C(F)(F)F)cc3)C(=O)N(C)CC(=O)N[C@@H](CCc3cc(F)c(C(F)(F)F)c(F)c3)C(=O)N2C1 [PP1295, (2S,8S,12R,14S,20S,23S,27S,30S,36S,38Z)-20-cyclopentyl-8-[2-[3,5-difluoro-4-(trifluoromethyl)phenyl]ethyl]-12-ethoxy-27-isobutyl-4,19,22,26,32,35-hexamethyl-30-[(1S)-1-methylpropyl]-23-(pyrrolidine-1-carbonyl)-2-[[4-(trifluoromethyl)phenyl]methyl]spiro[1,4,7,10,16,19,22,26,29,32,35-undecazatricyclo[34.5.1.0^10,14]dotetracont-38-ene-17,1′-cyclobutane]-3,6,9,15,18,21,25,28,31,34,42-undecone] | 0.12 | 6.2 |  | AA (a compound having 20 or more is denoted as AA) | A (a compound having 10 or more and less than 20 is denoted as A) |  |  | 
2 | CCC[C@H]1C(=O)N[C@@H]([C@@H](C)CC)C(=O)N2CCC[C@H]2C(=O)N(C)[C@H]2C/C=C\CCN(C2=O)[C@@H](CC2CCC(F)(F)CC2)C(=O)N(C)CC(=O)N[C@@H](CCc2ccc(C(F)(F)F)c(OC)c2)C(=O)N2C[C@H](OCC)C[C@H]2C(=O)N(C)C2(CCC2)C(=O)N(C)[C@@H](C2CCCC2)C(=O)N(C)[C@H](C(=O)N(C)C)CC(=O)N1C [PP2356] |  | 14.7 | 0.94 |  |  | A (a compound having 10 or more and less than 20 is denoted as A) | A (a compound having 10 or more and less than 20 is denoted as A) | 
3 | CC[C@H](C)[C@@H]1NC(=O)[C@H](CC)N(C)C(=O)C[C@@H](C(=O)N(C)C)N(C)C(=O)[C@H](C2CCCC2)N(C)C(=O)C2(CCC2)NC(=O)[C@@H]2CCCN2C(=O)[C@H](CCc2cc(F)c(C(F)(F)F)c(F)c2)NC(=O)CN(C)C(=O)[C@H](CC2CCC(F)(F)CC2)N2CC/C=C\C[C@@H](C2=O)N(C)C(=O)CN(C)C1=O [PP1461] | 0.27 | 121 |  | A (a compound having 10 or more and less than 20 is denoted as A) | A (a compound having 10 or more and less than 20 is denoted as A) |  |  | 
4 | CCO[C@@H]1C[C@H]2C(=O)NC3(CC(C)(C)C3)C(=O)N(C)[C@@H](C3CCCC3)C(=O)N(C)[C@H](C(=O)N(C)C)CC(=O)N(C)[C@@H](CC(C)C)C(=O)N[C@@H]([C@@H](C)CC)C(=O)N(C)CC(=O)N(C)[C@H]3C/C=C\CCN(C3=O)[C@@H](Cc3ccc(C(F)(F)F)cc3)C(=O)N(C)CC(=O)N[C@@H](CCc3ccc(C(F)(F)F)c(OC)c3)C(=O)N2C1 [PP1562] | 0.046 | 1.7 |  | A (a compound having 10 or more and less than 20 is denoted as A) | A (a compound having 10 or more and less than 20 is denoted as A) |  |  | 
5 | CC[C@H](C)[C@@H]1NC(=O)[C@H](CC(C)C)N(C)C(=O)C[C@@H](C(=O)N(C)C)N(C)C(=O)[C@H](C2CCCC2)N(C)C(=O)C2(CC(C)(C)C2)NC(=O)[C@@H]2C[C@@H](F)CN2C(=O)[C@H](CCc2cc(F)c(C(F)(F)F)c(F)c2)NC(=O)CN(C)C(=O)[C@H](Cc2ccc(C(F)(F)F)cc2)N2CC/C=C\C[C@@H](C2=O)N(C)C(=O)CN(C)C1=O [PP1566] | 0.026 | 2.3 |  | A (a compound having 10 or more and less than 20 is denoted as A) | A (a compound having 10 or more and less than 20 is denoted as A) |  |  | 
6 | CCO[C@@H]1C[C@H]2C(=O)NC3(CCC3)C(=O)N(C)[C@@H](C3CCCC3)C(=O)N(C)[C@H](C(=O)N(C)C)CC(=O)N(C)[C@@H](Cc3ccccc3C#N)C(=O)N[C@@H]([C@@H](C)CC)C(=O)N(C)CC(=O)N(C)[C@H]3CCCCCN(C3=O)[C@@H](Cc3ccc(F)cc3)C(=O)N(C)CC(=O)N[C@@H](CCc3cc(F)c(C(F)(F)F)c(F)c3)C(=O)N2C1 [PP1155] |  | 73.1 | 0.15 |  |  | B (a compound having 3 or more and less than 10 is denoted as B) | B (a compound having 3 or more and less than 10 is denoted as B) | 
7 | CCCO[C@@H]1C[C@H]2C(=O)NC3(CC(C)(C)C3)C(=O)N(C)[C@@H](C3CCCC3)C(=O)N(C)[C@H](C(=O)N(C)CC)CC(=O)N(C)[C@H]3CCCc4ccc(cc4)C[C@@H](C(=O)N(C)CC(=O)N[C@@H](CCc4ccc(C(F)(F)F)c(OC)c4)C(=O)N2C1)N1CC/C=C\C[C@@H](C1=O)N(C)C(=O)CN(C1CC1)C(=O)[C@H]([C@@H](C)CC)NC3=O [PP3088] |  |  | 0.34 |  |  | B (a compound having 3 or more and less than 10 is denoted as B) | B (a compound having 3 or more and less than 10 is denoted as B) | ratio of the KD value with respect to GDP-bound NRAS wild-type protein to the KD value with respect to KRAS ([2]; SPR, KD(NRAS)/KD(KRAS)): B (a compound having 3 or more and less than 10 is denoted as B); ratio of the KD value with respect to GDP-bound HRAS wild-type protein to the KD value with respect to KRAS ([3]; SPR, KD(HRAS)/KD(KRAS)): B (a compound having 3 or more and less than 10 is denoted as B); IC50 ([4]; read-out: NCI-H441 cell proliferation inhibitory activity, 50% proliferation inhibitory concentration (IC50 value), NCI-H441, four days, CellTiter-Glo): 15.1 nM
8 | CCO[C@@H]1C[C@H]2C(=O)NC3(CCC3)C(=O)N(C)[C@@H](C3CCCC3)C(=O)N(C)[C@H](C(=O)N3CCOCC3)CC(=O)N(C)C(C)(C)C(=O)N[C@@H]([C@@H](C)CC)C(=O)N(C)CC(=O)N(C)[C@H]3CCCCN(C3=O)[C@@H](Cc3ccc(C(F)(F)F)cc3)C(=O)N(C)CC(=O)N[C@@H](CCc3cc(F)c(C(F)(F)F)c(F)c3)C(=O)N2C1 [PP0722] |  | 2600 |  |  |  |  |  | Kd [1, 10]: 25 nM; NRAS/KRAS (ratio of KD value with respect to NRAS to KD value with respect to KRAS) [2, 8]: C (A compound having a KD ratio of 0.1 or more and less than 3 is denoted as C); HRAS/KRAS (ratio of KD value with respect to HRAS to KD value with respect to KRAS) [3, 9]: B (a compound having 3 or more and less than 10 is denoted as B)

The next lines start with results.

Row | Kd [1, 5] [nM] | IC50 [4] [nM] | Kd ([1]; SPR, Single Cycle Kinetics) [nM] | SMILES | NRAS/KRAS (ratio of KD value for NRAS to KD value for KRAS) [2, 6] | HRAS/KRAS (ratio of KD value for HRAS to KD value for KRAS) [3, 7] | NRAS/KRAS (ratio of KD value for NRAS to KD value for KRAS) [2, 8] | HRAS/KRAS (ratio of KD value for HRAS to KD value for KRAS) [3, 9] | other results
9 |  | 180 | 3.9 | CCC[C@H]1C(=O)N[C@@H](CC(C)C)C(=O)N(C2CC2)CC(=O)N(C)[C@H]2C/C=C\CCN(C2=O)[C@@H](Cc2ccc(C)cc2)C(=O)N(C)CC(=O)N[C@@H](CCc2ccc(C(F)(F)F)c(OC)c2)C(=O)N2C[C@H](OCC)C[C@H]2C(=O)NC2(CC(C)(C)C2)C(=O)N(C)[C@@H](C2CCCC2)C(=O)N(C)[C@H](C(=O)N(C)C)CC(=O)N1C [PP2510] |  |  | A (a compound having 10 or more and less than 20 is denoted as A) | B (a compound having 3 or more and less than 10 is denoted as B) | 
10 |  | 4.1 | 0.069 | CCO[C@@H]1C[C@H]2C(=O)NC3(CC(C)(C)C3)C(=O)N(C)[C@@H](C3CCCC3)C(=O)N(C)[C@H](C(=O)N(C)CC)CC(=O)N(C)[C@@H](COC)C(=O)N[C@@H]([C@@H](C)CC)C(=O)N(C)CC(=O)N(C)[C@H]3C/C=C\CCN(C3=O)[C@@H](Cc3ccc(C)cc3)C(=O)N(C)CC(=O)N[C@@H](CCc3cc(F)c(C(F)(F)F)c(F)c3)C(=O)N2C1 [PP2396] |  |  | A (a compound having 10 or more and less than 20 is denoted as A) | A (a compound having 10 or more and less than 20 is denoted as A) | 
11 |  | 56.9 |  | CCC(CC)[C@H]1C(=O)N(C)[C@H](C(=O)N(C)C)CC(=O)N(C)[C@@H](COC)C(=O)N[C@@H]([C@@H](C)CC)C(=O)N(C2CC2)CC(=O)N(C)[C@H]2C/C=C\CCN(C2=O)[C@@H](Cc2ccc(C(F)F)cc2)C(=O)N(C)CC(=O)N[C@@H](CCc2cc(F)c(C(F)(F)F)c(F)c2)C(=O)N2C[C@H](OC3CCC3)C[C@H]2C(=O)NC2(CC(C)(C)C2)C(=O)N1C [PP2631] |  |  |  |  | Kd [1, 10]: 0.5 nM; NRAS/KRAS (ratio of KD value with respect to GDP-bound NRAS wild-type protein to KD value with respect to KRAS) [2]: AA (a compound having 20 or more is denoted as AA); HRAS/KRAS (ratio of KD value with respect to GDP-bound HRAS wild-type protein to KD value with respect to KRAS) [3]: A (a compound having 10 or more and less than 20 is denoted as A)
12 |  | 46.3 |  | CCC[C@H]1C(=O)N[C@@H]([C@@H](C)CC)C(=O)N(C2CC2)CC(=O)N(C)[C@H]2C/C=C\CCN(C2=O)[C@@H](Cc2ccc(C)cc2)C(=O)N(C)CC(=O)N[C@@H](CCc2cc(F)c(C(F)(F)F)c(F)c2)C(=O)N2C[C@H](OCC)C[C@H]2C(=O)NC2(CC(C)(C)C2)C(=O)N(C)[C@@H](C(CC)CC)C(=O)N(C)[C@H](C(=O)N(C)C)CC(=O)N1C [PP2560] |  |  |  |  | Kd [1, 10]: 1 nM; NRAS/KRAS (ratio of KD value with respect to GDP-bound NRAS wild-type protein to KD value with respect to KRAS) [2]: AA (a compound having 20 or more is denoted as AA); HRAS/KRAS (ratio of KD value with respect to GDP-bound HRAS wild-type protein to KD value with respect to KRAS) [3]: A (a compound having 10 or more and less than 20 is denoted as A)
